Measurements reported in patent publication US20190119284A1, “ErbB Inhibitors and Uses Thereof” (The Regents of the University of California, priority 2016, published 2019).

Key:
[1] = system: HER2/HER3 signaling in SK-BR-3 cells; experiment: HER2/HER3 signaling in SK-BR-3 cells (immunoblot); assay type: cell-based; settings: serum-starved SK-BR-3 cells; drug added 15 min before NRG
Procedure: Immunoblotting. Cells were grown in 6 well plates and treated according to the indicated conditions at which point the media was aspirated, cells were washed with 1 mL of cold PBS, which was then aspirated and the plates were frozen at −80° C. The frozen cells were thawed on the plates in a buffer containing 50 mM Tris pH 7.5, 150 mM NaCl, 1 mM EDTA, and 1% Triton X-100 supplemented with 1× phosphatase (PhoSTOP, Roche) and 1× protease (complete-mini tablets, Roche) inhibitors. Lysates were scraped, transferred to Eppendorf tubes, and cleared by centrifugation at 20,000×g for 20 min at 4° C. The clarified lysates were transferred to chilled, clean tubes, and normalized for protein concentration by Bradford (Bio-Rad). […] Primary antibodies were detected using IRDye secondary antibodies (Li-Cor) according to the manufacturer's recommendations and scanned on an Odyssey imager (Li-Cor).

[2] = system: HER2/HER3 signaling in CHL-1 cells; experiment: HER2/HER3 signaling in CHL-1 cells; assay type: cell-based; settings: compared with lapatinib
[3] = system: HER2 overexpressing cell lines (BT-474, SK-BR-3); experiment: cell death with CellTox green (Incucyte Zoom), 72 h +/- NRG; assay type: cell-based; settings: BT-474 and SK-BR-3, 72 h +/- NRG
Procedure: FIGS. 15A-15C. NRG rescues HER2 overexpressing cell lines from type 1.5 inhibitors but not compound 3. FIG. 15A. BT-474 cells were treated with the indicated concentrations of drugs in the presence or absence of NRG for 72 h. Cell death was determined using CellTox green with the Incucyte Zoom data are represented as mean values±SD (n=3). FIG. 15B. Same experiment as in FIG. 15A, but with SK-BR-3 cells. c. Cells were treated with 1 μM of the indicated inhibitor in the presence of varying concentrations of NRG. The lapatininb data is reproduced from FIG. 1C (mean value±SD, n=3).

[4] = molecular target: PRKACA (Homo sapiens, UniProt P17612); experiment: Nanosyn in vitro kinase profiling: PRKACA; assay type: biochemical; settings: compound at 1 μM
[5] = molecular target: TRKC (Homo sapiens, UniProt Q16288); experiment: Nanosyn in vitro kinase profiling: TRKC; assay type: biochemical
TRKC, sequence (Q16288 32-839): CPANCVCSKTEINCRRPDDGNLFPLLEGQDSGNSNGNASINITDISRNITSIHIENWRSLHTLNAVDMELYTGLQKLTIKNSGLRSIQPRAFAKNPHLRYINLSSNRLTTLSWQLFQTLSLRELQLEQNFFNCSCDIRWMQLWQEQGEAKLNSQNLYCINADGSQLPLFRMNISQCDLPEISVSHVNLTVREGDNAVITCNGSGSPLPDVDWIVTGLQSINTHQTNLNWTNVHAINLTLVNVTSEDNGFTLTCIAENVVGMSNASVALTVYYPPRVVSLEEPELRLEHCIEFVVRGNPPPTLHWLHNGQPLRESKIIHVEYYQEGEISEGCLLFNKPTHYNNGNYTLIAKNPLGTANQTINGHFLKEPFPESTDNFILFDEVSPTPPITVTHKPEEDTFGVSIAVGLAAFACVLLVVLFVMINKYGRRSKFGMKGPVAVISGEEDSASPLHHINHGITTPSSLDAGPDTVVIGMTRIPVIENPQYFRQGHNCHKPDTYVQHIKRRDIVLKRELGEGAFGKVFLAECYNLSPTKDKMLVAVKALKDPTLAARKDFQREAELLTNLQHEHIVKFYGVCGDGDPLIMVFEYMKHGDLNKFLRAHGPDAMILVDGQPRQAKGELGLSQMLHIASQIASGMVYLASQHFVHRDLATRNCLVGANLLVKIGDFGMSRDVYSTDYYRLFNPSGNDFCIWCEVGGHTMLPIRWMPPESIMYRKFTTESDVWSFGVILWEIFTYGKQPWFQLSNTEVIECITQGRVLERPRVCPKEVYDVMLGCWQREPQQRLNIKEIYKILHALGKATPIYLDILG
Procedure: (§1) This was confirmed by in vitro profiling against a panel of kinases, with compound 2 only showing potent inhibition of EGFR and Ab1 (Table 2).
(§2) In vitro Kinome Screen. In vitro profiling of compound 2 at 100 nM was conducted by Nanosyn.

[6] = molecular target: EPH-B4 (Homo sapiens, UniProt P54760); experiment: Nanosyn in vitro kinase profiling: EPH-B4; assay type: biochemical
EPH-B4, sequence (P54760 16-987, species assumed): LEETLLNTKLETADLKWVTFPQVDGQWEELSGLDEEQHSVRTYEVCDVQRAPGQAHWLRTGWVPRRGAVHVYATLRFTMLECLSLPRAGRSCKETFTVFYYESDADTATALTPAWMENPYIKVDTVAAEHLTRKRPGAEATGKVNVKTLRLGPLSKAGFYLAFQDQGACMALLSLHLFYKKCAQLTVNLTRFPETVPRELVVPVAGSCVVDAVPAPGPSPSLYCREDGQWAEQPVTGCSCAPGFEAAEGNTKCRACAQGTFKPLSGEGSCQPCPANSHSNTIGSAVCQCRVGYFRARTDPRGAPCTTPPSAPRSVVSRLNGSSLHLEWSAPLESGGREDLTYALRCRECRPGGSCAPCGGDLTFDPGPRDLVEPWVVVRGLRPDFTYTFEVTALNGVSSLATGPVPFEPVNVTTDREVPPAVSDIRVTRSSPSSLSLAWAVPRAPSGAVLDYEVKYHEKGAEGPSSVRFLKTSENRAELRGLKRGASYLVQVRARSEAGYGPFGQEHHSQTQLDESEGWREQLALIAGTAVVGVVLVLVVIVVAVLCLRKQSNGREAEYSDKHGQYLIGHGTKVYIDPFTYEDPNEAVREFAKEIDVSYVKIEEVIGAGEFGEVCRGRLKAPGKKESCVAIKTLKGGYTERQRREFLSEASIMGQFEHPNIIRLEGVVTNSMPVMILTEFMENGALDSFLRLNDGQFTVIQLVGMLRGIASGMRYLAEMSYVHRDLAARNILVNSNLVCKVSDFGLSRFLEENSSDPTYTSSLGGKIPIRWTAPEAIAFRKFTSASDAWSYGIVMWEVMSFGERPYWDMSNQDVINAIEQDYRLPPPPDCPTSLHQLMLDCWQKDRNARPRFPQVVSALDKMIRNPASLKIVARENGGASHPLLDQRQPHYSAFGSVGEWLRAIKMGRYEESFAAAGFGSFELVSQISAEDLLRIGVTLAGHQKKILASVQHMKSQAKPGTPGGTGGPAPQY
Procedure: as §1, §2

[7] = molecular target: TYRO3 (Homo sapiens, UniProt Q06418); experiment: Nanosyn in vitro kinase profiling: TYRO3; assay type: biochemical
TYRO3, sequence (Q06418 41-890, species assumed): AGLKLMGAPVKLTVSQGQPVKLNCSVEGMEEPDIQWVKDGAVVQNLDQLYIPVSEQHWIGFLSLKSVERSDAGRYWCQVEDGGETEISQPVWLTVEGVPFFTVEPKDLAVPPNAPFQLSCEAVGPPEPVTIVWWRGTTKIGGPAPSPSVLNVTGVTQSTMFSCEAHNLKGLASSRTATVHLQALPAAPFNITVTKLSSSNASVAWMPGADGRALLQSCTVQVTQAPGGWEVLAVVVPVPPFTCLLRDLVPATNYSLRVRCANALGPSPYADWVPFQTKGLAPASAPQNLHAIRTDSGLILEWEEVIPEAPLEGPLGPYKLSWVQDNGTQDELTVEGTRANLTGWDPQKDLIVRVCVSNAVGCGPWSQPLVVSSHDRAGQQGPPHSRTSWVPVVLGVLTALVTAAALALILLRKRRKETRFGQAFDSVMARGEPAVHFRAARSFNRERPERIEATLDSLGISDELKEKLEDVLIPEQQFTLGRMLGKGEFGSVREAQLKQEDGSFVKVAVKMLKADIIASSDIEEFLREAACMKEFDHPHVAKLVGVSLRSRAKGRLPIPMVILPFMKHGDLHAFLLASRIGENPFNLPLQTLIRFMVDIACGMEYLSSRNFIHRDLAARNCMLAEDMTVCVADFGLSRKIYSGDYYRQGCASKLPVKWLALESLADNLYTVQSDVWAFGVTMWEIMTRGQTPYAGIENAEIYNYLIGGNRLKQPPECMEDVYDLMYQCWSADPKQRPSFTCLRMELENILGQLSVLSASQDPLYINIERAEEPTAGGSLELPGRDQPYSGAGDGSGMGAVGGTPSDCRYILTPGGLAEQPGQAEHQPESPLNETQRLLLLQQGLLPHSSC
Procedure: as §1, §2

With `CS(=O)(=O)CCNCc1ccc(-c2ccc3ncnc(Nc4ccc(OCc5cccc(F)c5)c(Cl)c4)c3c2)o1` [lapatinib] the “concentration sufficient to inhibit the entire RTK signaling pathway” value [1] was “greater than 100 nM”.

In the case of `COc1ccc(-c2ccoc2)cc1Nc1ncnc2[nH]cc(-c3cc[nH]n3)c12` [compound 3, N-(5-(furan-3-yl)-2-methoxyphenyl)-5-(1H-pyrazol-3-yl)-7H-pyrrolo[2,3-d]pyrimidin-4-amine], the “inhibition of feedback activated HER2/HER3 signaling” value ([2]; CHL-1, after 24 h DMSO or 500 nM lapatinib, then 24 h dose response) is reported as “better able to inhibit feedback activated HER2/HER3 signaling”, the “inhibition of p-HER3 and PI3K/Akt pathway” value ([2]; CHL-1, dose response 24 h) is reported as “better able to inhibit p-HER3 and thus the PI3K/Akt pathway” and the “rescue by NRG” value [3] is reported as “not”. The inhibition at 1 µM [4] was 20%.

`COc1ccc(-c2ccco2)cc1Nc1ncnc2[nH]nc(-c3ccco3)c12` [compound 2, 3-(furan-2-yl)-N-(5-(furan-2-yl)-2-methoxyphenyl)-1H-pyrazolo[3,4-d]pyrimidin-4-amine] was tested, and the inhibition at 0.1 µM ([5]; compound at 100 nM) was 15.7%, the inhibition at 1 µM ([5]; compound at 1 μM) was 46.9% and the inhibition at 0.1 µM ([6]; compound at 100 nM) was 3.44%. It also gave an inhibition at 1 µM ([6]; compound at 1 μM) of 21.7%, an inhibition at 0.1 µM ([7]; compound at 100 nM) of 3.29% and an inhibition at 1 µM ([7]; compound at 1 μM) of 5.56%.
